Results published in patent US9937227B2, “Humanin, analogs and cancer treatment methods and uses thereof” (LOS ANGELES BIOMEDICAL RESEARCH INSTITUTE AT HARBOR-UCLA …, priority 2014, dated 2018).

What was measured:
ovaries = format: in vivo; conditions: HNG 5 mg/kg/day IP or CP 100 mg/Kg single IP, day 14
Procedure: A mouse mammary cancer model was used which utilizes 4T1 cells transfected with the luciferase gene. Growth and size of 4T1 mammary tumors were detected by bioluminescence imaging (IVIS Luminia II, Perkin Elmer, Waltham, Mass.). Mice (n=5 to 7 per group) were inoculated with 1×10^6 4T1 cells into the right third mammary gland, and 7 days later they were left untreated or treated with HNG (5 mg/kg/day IP), CP (100 mg/Kg single IP) or HNG+CP for 14 days. Animals were sacrificed and both ovaries were removed from each mouse on day 14 after the start of treatment. Serial 5-micrometer sections were made. Every 5th section was examined and the number of primordial, primary, and secondary follicles counted (Kim S Y, et al., 2013; Bristol-Gould S K, et al., 2006; Roti Roti E C, et al., 2012). In addition, TUNEL staining for apoptotic cells and oocytes was quantified (Perez G I, et al., 1997; Ben-Aharon I, et al., 2010).

germ cells = conditions: HNG 5 mg/kg/BW IP or CP 200 mg/kg/BW IP, 24 hours
Procedure: To examine the protective effects of HNG on germ cells, adult mice were treated with vehicle (control); HNG (5 mg/kg/BW, intraperitoneal injection IP); CP (200 mg/kg/BW, IP); and CP+HNG for 24 hours.

[1] = tested on: Ser727-phosphorylated STAT3; test: STAT3 phosphorylation in testis by western blot; format: in vivo, mouse; conditions: testis homogenates; single agent
Procedure: For the HN analog experiments, male mice were divided into seven groups (n=4-5 per group) and received one of the following treatments and sacrificed after 24 hours: 1) vehicle (control); 2) a single intra-peritoneal (IP) injection of HN peptide [HN, 40 mg/Kg body weight (BW)]; 3) a single IP injection of CP (CP, 200 mg/Kg BW); 4) IP injection of CP and HN (CP+HN); 5) a single IP injection of each HN analog (HNG 5 mg/Kg BW, HNG-F6A 5 mg/Kg BW, HN-S7A 40 mg/Kg BW, HN-C8P 40 mg/Kg BW, or HN-L12A 40 mg/Kg BW); 6) IP injection of CP and each HN analog (CP+HNG, HNG-F6A, HN-S7A, HN-C8P, or HN-L12A); and 7) IP injection of CP+HN+HN analog (HN-S7A, HN-C8P, or HN-L12A; to assess whether the analogs has enhancing or inhibitory effect on HN).
To facilitate testicular fixation by using a whole-body perfusion technique, all animals were injected with heparin (130 IU/100 g BW, IP) 15 min before a lethal injection of sodium pentobarbital (200 mg/kg BW, IP) (Lue Y H, et al., 1999). One testis was removed and weighed after perfusion with saline. Portions of testicular parenchyma were snap frozen in liquid nitrogen, and stored at −80 C for Western blotting. The other testis was fixed by vascular perfusion with Bouin's solution, and processed with routine paraffin embedding for in situ detection of apoptosis.
Western blotting was performed as described previously (Jia Y, et al., 2009). […]

[2] = tested on: B16 murine melanoma cells; test: Metastatic lung tumors in mouse B16 melanoma model (Experiments 3 and 4); format: in vivo
Procedure: A total of 25 young adult mice (10-12 weeks) were randomly divided into 5 groups (n=5 per group). Five mice were used as control. Twenty mice were inoculated intravenously with B16 murine melanoma cells (2×10^5 cells/mouse). Among these 20 tumor-inoculated mice, 5 mice received no further treatment. After one week, the remaining 15 mice were divided into 3 groups and injected with: 1) HNG daily IP (5 mg/Kg body weight) for 2 weeks; 2) CP (200 mg/Kg body weight IP single injection); 3) combined CP with HNG treatment (same doses as above). All mice were sacrificed 3 weeks after tumor inoculation, and 2 weeks after HNG and/or CP treatment. The animals were sacrificed with 5% pentobarbital (200 mg/kg body weight) IP injection after which blood was collected from the right atrium of the heart. One of the testes from each mouse was immersed fixed in Bouin's solution, and the mice were perfused with saline and subsequently perfuse-fixed with 5% glutaraldehyde in 0.05 M cacodylate buffer (pH 7.4). The lungs were dissected out and post fixed in 5% glutaraldehyde solution for 24 hours and stored in cacodylate buffer at 4° C. for the subsequent tumor count (Lue, et al., 2010; Lue, et al., 2009).
Experiment 3 was repeated after inoculation of B16 melanoma tumor at week 1 and then treated with the following treatment starting at week 2 (n=5 mice per group): 1). No treatment; 2). HNG IP injections 5 mg/Kg daily; 3) CP 200 mg/Kg single IP injection; 4) HNG 5 mg/Kg/day+CP; 5). HNG IP injections 15 mg/Kg daily; and 6). HNG 15 mg/Kg/day+CP. All animals were euthanized and perfused with 4% paraformaldehyde at the end of week 3. Lungs and testes were collected and processed as in experiment 3. Methods
B16 melanoma tumors in the lung were quantified by counting the number of tumors on the surface of the lungs under stereomicroscopy (Collisson, et al., 2003; Craft, et al., 2005). The size of the tumor was measured using histomorphometry and expressed as average size of tumor. The appearance of the melanoma cells were reviewed and characterized by an expert pathologist.

IGF-1 = test: Plasma IGF-1 in mice bearing metastatic lung melanomas; format: in vivo, mouse; conditions: 14 days; HNG 5 mg/kg/day IP, CP 200 mg/kg IP single injection
Source text: These preliminary data support a concept that HN is a caloric restriction mimetic, and its cytotoxic effects in cancer may be mediated by lowering IGF-1 without increasing GH and insulin.

**Q.** Which results are given for `O=P1(N(CCCl)CCCl)NCCCO1` (stereo not drawn) [CP, cyclophosphamide monohydrate]?
**A.** ovarian follicles in representative sections (ovaries): less secondary, but more atretic follicles; germ cell apoptosis vs control (germ cells): significantly increased; STAT3 phosphorylation compared with control [1]: suppressed; number of metastatic tumors on the surface of the lungs vs non-treated tumor-bearing mice ([2]; Experiment 3, HNG 5 mg/Kg daily IP 2 weeks or CP 200 mg/Kg single IP): decreased number of tumors; size of the melanoma metastasis on the surface of the lungs ([2]; Experiment 3, HNG 5 mg/Kg daily or CP 200 mg/Kg single IP): decreased number of tumors but also tumor size; number of lung tumors vs non-treated tumor-bearing mice ([2]; Experiment 4, HNG 5 mg/kg BW daily or CP 200 mg/Kg single IP): significantly decreased both the number and size of the tumors; size of the lung tumors vs non-treated ([2]; Experiment 4, HNG 5 and 15 mg/kg BW, CP 200 mg/Kg): significantly decreased both the number and size of the tumors; lung metastatic melanoma histology (differentiation of melanoma cells) ([2]; HNG 5 mg/kg BW, CP, or combination): minor differentiation; plasma IGF-1 levels (IGF-1): modestly suppressed
